Data published in patent publication US12338220B2, “Antiviral pyrazolopiridinone compounds” (Novartis AG, priority 2019, dated 2025).
Like-named read-outs stand apart in the source and are kept apart here.

How the values were obtained:
CMV-polymerase = CMV-polymerase (Human cytomegalovirus (strain AD169) (HHV-5) (Human herpesvirus 5), UniProt P08546); assay: biochemical
HSV-polymerase = HSV-polymerase (Human herpesvirus 1 (strain 17) (HHV-1) (Human herpes simplex virus 1), UniProt P04293); assay: biochemical
CMV = assay: microbe, parasite or virus in culture; format: cell-based; conditions: Human betaherpesvirus 5, 72 h, read-out: CMV-Luc Cellular EC50, NN-NHDF cells, MOI 1, 72 hrs
[1] = CMV-polymerase Biochemical IC50
[2] = read-out: CMV-polymerase Biochemical IC50

SMILES | IC50 (CMV-polymerase; [1]) [nM] | IC50 (HSV-polymerase) [nM] | IC50 (CMV-polymerase; [2]) [nM] | EC50 (CMV) [nM]
CC1Cc2c(C(=O)NCc3ccc(C#N)cc3)nn(C)c2C(=O)N1CC1(S(C)(=O)=O)CC1 (single isomer, unassigned) [Example 42, (R)- or (S)-N-(4-cyanobenzyl)-1,5-dimethyl-6-((1-(methylsulfonyl)cyclopropyl)methyl)-7-oxo-4,5,6,7-tetrahydro-1H-pyrazolo[3,4-c]pyridine-3-carboxamide] | 149 | 2000 |  | 
Cn1nc(C(=O)NCc2ccc(C#N)cc2)c2c1C(=O)N(CC1(S(=O)(=O)C(C)(C)COC(F)CO)CC1)CC2 (single isomer, unassigned) [Example 81, (R)- or (S)-N-(4-cyanobenzyl)-6-((1-((1-(1-fluoro-2-hydroxyethoxy)-2-methylpropan-2-yl)sulfonyl)cyclopropyl)methyl)-1-methyl-7-oxo-4,5,6,7-tetrahydro-1H-pyrazolo[3,4-c]pyridine-3-carboxamide] | 3 | 46 |  | 
Cn1nc(C(=O)NCc2ccc(C#N)cc2)c2c1C(=O)N(CC1(S(=O)(=O)C(C)(C)COC(F)CN)CC1)CC2 (single isomer, unassigned) [Example 82, (R)- or (S)-6-((1-((1-(2-amino-1-fluoroethoxy)-2-methylpropan-2-yl)sulfonyl)cyclopropyl)methyl)-N-(4-cyanobenzyl)-1-methyl-7-oxo-4,5,6,7-tetrahydro-1H-pyrazolo[3,4-c]pyridine-3-carboxamide] |  | 82 | 2 | 
Cn1nc(C(=O)NCc2ccc(C#N)cc2)c2c1C(=O)N(CC1(S(=O)(=O)C(C)(C)COC(F)CN)CC1)CC2 (single isomer, unassigned) [Example 83, (R)- or (S)-6-((1-((1-(2-Amino-1-fluoroethoxy)-2-methylpropan-2-yl)sulfonyl)cyclopropyl)methyl)-N-(4-cyanobenzyl)-1-methyl-7-oxo-4,5,6,7-tetrahydro-1H-pyrazolo[3,4-c]pyridine-3-carboxamide] |  | 71 | 1 | 
Cn1nc(C(=O)NCc2ccc(C#N)cc2)c2c1C(=O)N(CC1(S(=O)(=O)C3(C(O)CO)CC3)CC1)CC2 (single isomer, unassigned) [Example 195, (R)- or (S)-N-(4-Cyanobenzyl)-6-((1-((1-(1,2-dihydroxyethyl)cyclopropyl)sulfonyl)cyclopropyl)methyl)-1-methyl-7-oxo-4,5,6,7-tetrahydro-1H-pyrazolo[3,4-c]pyridine-3-carboxamide] |  | 23 |  | 
CS(=O)(=O)C1(CN2CCc3c(C(=O)NCc4ccc(Cl)cc4)nn(CCO)c3C2=O)CC1 [Example 219, N-(4-Chlorobenzyl)-1-(2-hydroxyethyl)-6-((1-(methylsulfonyl)cyclopropyl)methyl)-7-oxo-4,5,6,7-tetrahydro-1H-pyrazolo[3,4-c]pyridine-3-carboxamide] |  |  | 30 | 207
CC(C)(CO)S(=O)(=O)C1(CN2CCc3c(C(=O)NCc4ccc(C#N)cc4)nn(CCO)c3C2=O)CC1 [Example 220, N-(4-Cyanobenzyl)-6-((1-((1-hydroxy-2-methylpropan-2-yl)sulfonyl)cyclopropyl)methyl)-1-(2-hydroxyethyl)-7-oxo-4,5,6,7-tetrahydro-1H-pyrazolo[3,4-c]pyridine-3-carboxamide] |  |  | 1 | 49
CC1(S(=O)(=O)C2(CN3CCc4c(C(=O)NCc5ccc(Cl)cc5)nn(CCOCCO)c4C3=O)CC2)CC1 [Example 222, N-(4-Chlorobenzyl)-1-(2-(2-hydroxyethoxy)ethyl)-6-((1-((1-methylcyclopropyl)sulfonyl)cyclopropyl)methyl)-7-oxo-4,5,6,7-tetrahydro-1H-pyrazolo[3,4-c]pyridine-3-carboxamide] | 3 |  |  | 33
CC1(S(=O)(=O)C2(CN3CCc4c(C(=O)NCc5ccc(Cl)cc5)nn(CCOCCN)c4C3=O)CC2)CC1 [Example 223, 1-(2-(2-Aminoethoxy)ethyl)-N-(4-chlorobenzyl)-6-((1-((1-methylcyclopropyl)sulfonyl)cyclopropyl)methyl)-7-oxo-4,5,6,7-tetrahydro-1H-pyrazolo[3,4-c]pyridine-3-carboxamide] | 5 |  |  | 49
CCC(=O)Cn1nc(C(=O)NCc2ccc(C#N)cc2)c2c1C(=O)N(CC1(S(=O)(=O)C3CC3)CC1)CC2 [Example 227, N-(4-Cyanobenzyl)-6-((1-(cyclopropylsulfonyl)cyclopropyl)methyl)-7-oxo-1-(2-oxobutyl)-4,5,6,7-tetrahydro-1H-pyrazolo[3,4-c]pyridine-3-carboxamide] | 1 |  |  | 28
N#Cc1ccc(CNC(=O)c2nn(CC3(O)CC3)c3c2CCN(CC2(S(=O)(=O)C4CC4)CC2)C3=O)cc1 [Example 228, N-(4-Cyanobenzyl)-6-((1-(cyclopropylsulfonyl)cyclopropyl)methyl)-1-((1-hydroxycyclopropyl)methyl)-7-oxo-4,5,6,7-tetrahydro-1H-pyrazolo[3,4-c]pyridine-3-carboxamide] | 2 |  |  | 51
CC(C)(O)Cn1nc(C(=O)NCc2ccc(Cl)cc2)c2c1C(=O)N(CC1(S(=O)(=O)C3CC3)CC1)CC2 [Example 229, N-(4-Chlorobenzyl)-6-((1-(cyclopropylsulfonyl)cyclopropyl)methyl)-1-(2-hydroxy-2-methylpropyl)-7-oxo-4,5,6,7-tetrahydro-1H-pyrazolo[3,4-c]pyridine-3-carboxamide] | 1 |  |  | 20
CC(C)(O)Cn1nc(C(=O)NCc2ccc(C#N)cc2)c2c1C(=O)N(CC1(S(=O)(=O)C3CC3)CC1)CC2 [Example 230, N-(4-Cyanobenzyl)-6-((1-(cyclopropylsulfonyl)cyclopropyl)methyl)-1-(2-hydroxy-2-methylpropyl)-7-oxo-4,5,6,7-tetrahydro-1H-pyrazolo[3,4-c]pyridine-3-carboxamide] |  |  | 1 | 31
CC(C)(O)Cn1nc(C(=O)NCc2ccc(Cl)cc2)c2c1C(=O)N(CC1(S(C)(=O)=O)CC1)CC2 [Example 231, N-(4-Chlorobenzyl)-1-(2-hydroxy-2-methylpropyl)-6-((1-(methylsulfonyl)cyclopropyl)methyl)-7-oxo-4,5,6,7-tetrahydro-1H-pyrazolo[3,4-c]pyridine-3-carboxamide] |  |  | 7 | 88
CC(C)(O)Cn1nc(C(=O)NCc2ccc(C#N)cc2)c2c1C(=O)N(CC1(S(C)(=O)=O)CC1)CC2 [Example 232, N-(4-Cyanobenzyl)-1-(2-hydroxy-2-methylpropyl)-6-((1-(methylsulfonyl)cyclopropyl)methyl)-7-oxo-4,5,6,7-tetrahydro-1H-pyrazolo[3,4-c]pyridine-3-carboxamide] |  |  | 6 | 160
CCS(=O)(=O)C1(CN2CCc3c(C(=O)NCc4ccc(C#N)cc4)nn(CC(C)(C)O)c3C2=O)CC1 [Example 233, N-(4-Cyanobenzyl)-6-((1-(ethylsulfonyl)cyclopropyl)methyl)-1-(2-hydroxy-2-methylpropyl)-7-oxo-4,5,6,7-tetrahydro-1H-pyrazolo[3,4-c]pyridine-3-carboxamide] |  |  | 2 | 96
CC(C)(O)Cn1nc(C(=O)NCc2ccc(C#N)cc2)c2c1C(=O)N(CC1(S(=O)(=O)C(C)(C)CO)CC1)CC2 [Example 235, N-(4-Cyanobenzyl)-6-((1-((1-hydroxy-2-methylpropan-2-yl)sulfonyl)cyclopropyl)methyl)-1-(2-hydroxy-2-methylpropyl)-7-oxo-4,5,6,7-tetrahydro-1H-pyrazolo[3,4-c]pyridine-3-carboxamide] |  |  | 1 | 31
N#Cc1ccc(CNC(=O)c2nn(CCCO)c3c2CCN(CC2(S(=O)(=O)C4CC4)CC2)C3=O)cc1 [Example 236, N-(4-Cyanobenzyl)-6-((1-(cyclopropylsulfonyl)cyclopropyl)methyl)-1-(3-hydroxypropyl)-7-oxo-4,5,6,7-tetrahydro-1H-pyrazolo[3,4-c]pyridine-3-carboxamide] |  |  | 4 | 77
CC1(S(=O)(=O)C2(CN3CCc4c(C(=O)NCc5ccc(C#N)cc5)nn(CCCO)c4C3=O)CC2)CC1 [Example 237, N-(4-Cyanobenzyl)-1-(3-hydroxypropyl)-6-((1-((1-methylcyclopropyl)sulfonyl)cyclopropyl)methyl)-7-oxo-4,5,6,7-tetrahydro-1H-pyrazolo[3,4-c]pyridine-3-carboxamide] |  |  | 2 | 38
CC(C)(CO)S(=O)(=O)C1(CN2CCc3c(C(=O)NCc4ccc(C#N)cc4)nn(CCOCCBr)c3C2=O)CC1 [Example 238, 1-(2-(2-bromoethoxy)ethyl)-N-(4-cyanobenzyl)-6-((1-((1-hydroxy-2-methylpropan-2-yl)sulfonyl)cyclopropyl)methyl)-7-oxo-4,5,6,7-tetrahydro-1H-pyrazolo[3,4-c]pyridine-3-carboxamide] |  |  | 1 | 16
CC1(C)COCCOCCn2nc(C(=O)NCc3ccc(C#N)cc3)c3c2C(=O)N(CC3)CC2(CC2)S1(=O)=O [Example 239, Ethylene glycol macrocycle N-(4-cyanobenzyl)carboxamide] | 1 |  |  | 23
CC1(C)COCCOCCn2nc(C(=O)NCc3ccc(Cl)cc3)c3c2C(=O)N(CC3)CC2(CC2)S1(=O)=O [Example 240, Ethylene glycol macrocycle N-(4-chlorobenzyl)carboxamide] | 1 |  |  | 43
CC1(C)C(=O)NCCOCCn2nc(C(=O)NCc3ccc(C#N)cc3)c3c2C(=O)N(CC3)CC2(CC2)S1(=O)=O [Example 241, Lactam macrocycle N-(4-cyanobenzyl)carboxamide] | 13 |  |  | 467
CC1(C)CNCCOCCn2nc(C(=O)NCc3ccc(C#N)cc3)c3c2C(=O)N(CC3)CC2(CC2)S1(=O)=O [Example 242, amine macrocycle N-(4-cyanobenzyl)carboxamide] | 6 |  |  | 101
